Test results reported in the NIST ThermoML archive (doi:10.1021/je020125e).
Several values for one entry are separate records, joined by “and”; a condition that tells them apart may be missing. Equal values may be shown once. ± gives the expanded uncertainty stated by the source.

Details: 101.33 kPa, Liquid, Hot wire method

CCC(C)(C)CC [3,3-dimethylpentane]
Details | thermal conductivity [W/m/K] | thermal diffusivity [m2/s]
256.11 K | 0.1116 ± 0.00091 | –
256.71 K | 0.1112 ± 0.00091 | –
256.82 K | – | 7.8e-08 ± 1.5e-09
257.04 K | 0.1113 ± 0.00091 | –
257.62 K | – | 7.76e-08 ± 1.5e-09
258.25 K | – | 7.71e-08 ± 1.5e-09
276.17 K | 0.106 ± 0.00087 | –
276.5 K | 0.1058 ± 0.00087 | –
276.78 K | 0.1057 ± 0.00087 | –
276.87 K | – | 7.25e-08 ± 1.4e-09
277.64 K | – | 7.2e-08 ± 1.4e-09
278.3 K | – | 7.18e-08 ± 1.4e-09
296.01 K | 0.1005 ± 0.00083 | –
296.03 K | 0.1006 ± 0.00083 | –
296.39 K | 0.1004 ± 0.00083 | –
296.63 K | 0.1002 ± 0.00083 | –
296.64 K | – | 6.59e-08 ± 1.3e-09
296.69 K | – | 6.66e-08 ± 1.3e-09
297.52 K | – | 6.68e-08 ± 1.3e-09
298.08 K | – | 6.59e-08 ± 1.3e-09
316.38 K | 0.09528 ± 0.0008 | –
316.67 K | 0.09499 ± 0.00079 | –
316.93 K | 0.09481 ± 0.00079 | –
317.05 K | – | 6.22e-08 ± 1.2e-09
317.7 K | – | 6.09e-08 ± 1.2e-09
318.3 K | – | 6.05e-08 ± 1.2e-09
333.75 K | 0.09074 ± 0.00076 | –
334.1 K | 0.09063 ± 0.00076 | –
334.37 K | 0.09047 ± 0.00076 | 5.74e-08 ± 1.1e-09
335.16 K | – | 5.76e-08 ± 1.1e-09
335.77 K | – | 5.74e-08 ± 1.1e-09

CCC(CC)CC [3-ethylpentane]
Details | thermal conductivity [W/m/K] | thermal diffusivity [m2/s]
257.28 K | 0.1253 ± 0.0023 | –
257.54 K | 0.1252 ± 0.0023 | –
257.83 K | 0.1251 ± 0.0023 | –
258.36 K | – | 8.28e-08 ± 2.1e-09
259.11 K | – | 8.26e-08 ± 2.1e-09
259.89 K | – | 8.25e-08 ± 2.1e-09
277.62 K | 0.119 ± 0.0022 | –
277.89 K | 0.1188 ± 0.0022 | –
278.19 K | 0.1187 ± 0.0022 | –
278.75 K | – | 7.78e-08 ± 2e-09
279.49 K | – | 7.73e-08 ± 2e-09
280.3 K | – | 7.72e-08 ± 2e-09
296.33 K | 0.1132 ± 0.0021 | –
296.62 K | 0.113 ± 0.0021 | –
296.78 K | 0.113 ± 0.0021 | –
297.48 K | – | 7.29e-08 ± 1.9e-09
298.26 K | – | 7.28e-08 ± 1.9e-09
298.69 K | – | 7.28e-08 ± 1.9e-09
313.96 K | 0.1081 ± 0.002 | –
314.27 K | 0.1079 ± 0.002 | –
314.58 K | 0.1078 ± 0.002 | –
315.16 K | – | 6.95e-08 ± 1.8e-09
315.99 K | – | 6.93e-08 ± 1.8e-09
316.82 K | – | 6.9e-08 ± 1.8e-09
331.22 K | 0.1032 ± 0.0019 | –
331.29 K | 0.1029 ± 0.0019 | –
331.56 K | 0.1031 ± 0.0019 | –
332.45 K | – | 6.59e-08 ± 1.7e-09
333.34 K | – | 6.59e-08 ± 1.7e-09
334.2 K | – | 6.55e-08 ± 1.7e-09

CCCCC(C)CC (configuration not stated) [3-methylheptane]
Details | thermal conductivity [W/m/K] | thermal diffusivity [m2/s]
259.08 K | 0.1255 ± 0.0018 | –
259.32 K | 0.1253 ± 0.0018 | –
259.58 K | 0.1252 ± 0.0018 | –
260.01 K | – | 8.29e-08 ± 1.9e-09
260.65 K | – | 8.28e-08 ± 1.9e-09
261.32 K | – | 8.27e-08 ± 1.9e-09
277.99 K | 0.1204 ± 0.0017 | –
278.23 K | 0.1203 ± 0.0017 | –
278.37 K | 0.1202 ± 0.0017 | –
278.95 K | – | 7.83e-08 ± 1.7e-09
279.57 K | – | 7.83e-08 ± 1.7e-09
279.93 K | – | 7.84e-08 ± 1.8e-09
297.36 K | 0.115 ± 0.0016 | –
297.63 K | 0.115 ± 0.0016 | –
297.91 K | 0.115 ± 0.0016 | –
298.32 K | – | 7.41e-08 ± 1.7e-09
299.02 K | – | 7.44e-08 ± 1.7e-09
299.76 K | – | 7.47e-08 ± 1.7e-09
315.56 K | 0.1101 ± 0.0015 | –
315.84 K | 0.1101 ± 0.0015 | –
316.12 K | 0.1099 ± 0.0015 | –
316.52 K | – | 6.98e-08 ± 1.6e-09
317.22 K | – | 7e-08 ± 1.6e-09
317.93 K | – | 6.98e-08 ± 1.6e-09
331.93 K | 0.1058 ± 0.0015 | –
332.21 K | 0.1057 ± 0.0015 | –
332.51 K | 0.1056 ± 0.0015 | –
332.93 K | – | 6.7e-08 ± 1.5e-09
333.64 K | – | 6.7e-08 ± 1.5e-09
334.38 K | – | 6.69e-08 ± 1.5e-09

CCCC(C)CC (configuration not stated) [3-methylhexane]
Details | thermal conductivity [W/m/K] | thermal diffusivity
256.62 K | 0.1236 ± 0.00085 | –
257 K | 0.1233 ± 0.00085 | –
257.38 K | 0.1231 ± 0.00085 | –
257.59 K | – | 8.59e-08 ± 1.6e-09 m2/s
258.63 K | – | 8.5e-08 ± 1.6e-09 m2/s
259.54 K | – | 8.43e-08 ± 1.6e-09 m2/s
269.72 K | 0.1196 ± 0.00082 | –
270.11 K | 0.1193 ± 0.00082 | –
270.44 K | 0.1191 ± 0.00082 | –
270.7 K | – | 8.14e-08 ± 1.5e-09 m2/s
271.73 K | – | 8.1e-08 ± 1.5e-09 m2/s
272.58 K | – | 8.04e-08 ± 1.5e-09 m2/s
284.9 K | 0.115 ± 0.0008 | –
285.32 K | 0.1148 ± 0.0008 | –
285.66 K | 0.1146 ± 0.00079 | –
285.92 K | – | 7.81e-08 ± 1.5e-09 m2/s
287.01 K | – | 7.78e-08 ± 1.5e-09 m2/s
287.89 K | – | 7.72e-08 ± 1.4e-09 m2/s
296.55 K | 0.1113 ± 0.00077 | –
296.95 K | 0.1113 ± 0.00077 | –
297.35 K | 0.111 ± 0.00077 | –
297.62 K | – | 7.5e-08 ± 1.4e-09 m2/s
298.65 K | – | 7.47e-08 ± 1.4e-09 m2/s
299.67 K | – | 7.41e-08 ± 1.4e-09 m2/s
311.54 K | 0.1073 ± 0.00075 | –
311.97 K | 0.107 ± 0.00075 | –
312.34 K | 0.1068 ± 0.00074 | –
312.6 K | – | 7.22e-08 ± 1.4e-09 m2/s
313.66 K | – | 7.08e-08 ± 1.3e-09 m2/s
314.6 K | – | 7.07e-08 ± 1.3e-09 m2/s
321.52 K | 0.1046 ± 0.00073 | –
321.98 K | 0.1042 ± 0.00073 | –
322.34 K | 0.104 ± 0.00073 | –
322.62 K | – | 7.02e-08 ± 1.3e-09 m2/s
323.75 K | – | 6.94e-08 ± 1.3e-09 m2/s
324.66 K | – | 6.86e-08 m2/s and 6.87e-08 m2/s
332.24 K | 0.1017 ± 0.00072 | –
332.69 K | 0.1013 ± 0.00071 | –
333.09 K | 0.1011 ± 0.00071 | –
333.3 K | – | 6.69e-08 ± 1.3e-09 m2/s
334.41 K | – | 6.61e-08 ± 1.3e-09 m2/s
335.4 K | – | 6.61e-08 ± 1.3e-09 m2/s
343.42 K | 0.09857 ± 0.0007 | –
343.89 K | 0.09831 ± 0.00069 | –
344.28 K | 0.09813 ± 0.00069 | –
344.3 K | 0.09807 ± 0.00069 | –
344.46 K | – | 6.42e-08 ± 1.2e-09 m2/s
345.61 K | – | 6.37e-08 ± 1.2e-09 m2/s
346.56 K | – | 6.32e-08 ± 1.2e-09 m2/s
346.62 K | – | 6.37e-08 ± 1.2e-09 m2/s

CCC(C)CC [3-methylpentane]
Details | thermal conductivity [W/m/K] | thermal diffusivity [m2/s]
256.68 K | 0.1196 ± 0.00097 | –
257 K | 0.1195 ± 0.00097 | –
257.43 K | 0.1193 ± 0.00097 | –
257.89 K | – | 8.31e-08 ± 1.6e-09
258.67 K | – | 8.27e-08 ± 1.6e-09
259.75 K | – | 8.22e-08 ± 1.6e-09
276.71 K | 0.1129 ± 0.00092 | –
277.02 K | 0.1128 ± 0.00092 | –
277.46 K | 0.1126 ± 0.00092 | –
277.98 K | – | 7.74e-08 ± 1.5e-09
278.74 K | – | 7.71e-08 ± 1.5e-09
279.82 K | – | 7.67e-08 ± 1.5e-09
296.39 K | 0.1066 ± 0.00087 | –
296.74 K | 0.1065 ± 0.00087 | –
297.2 K | 0.1063 ± 0.00087 | –
297.69 K | – | 7.21e-08 ± 1.4e-09
298.55 K | – | 7.2e-08 ± 1.4e-09
299.63 K | – | 7.16e-08 ± 1.4e-09
314.22 K | 0.1013 ± 0.00084 | –
314.59 K | 0.1012 ± 0.00083 | –
315.08 K | 0.101 ± 0.00083 | –
315.57 K | – | 6.8e-08 ± 1.3e-09
316.44 K | – | 6.8e-08 ± 1.3e-09
317.58 K | – | 6.75e-08 ± 1.3e-09
328.36 K | 0.09736 ± 0.00081 | –
328.75 K | 0.09723 ± 0.0008 | –
329.26 K | 0.09705 ± 0.0008 | –
329.73 K | – | 6.51e-08 ± 1.3e-09
330.64 K | – | 6.49e-08 ± 1.3e-09
331.82 K | – | 6.44e-08 ± 1.3e-09
